Data on 2 compounds can be found in article PMC4890005, “Newly identified motifs in Candida albicans Cdr1 protein nucleotide binding domains are pleiotropic drug resistance subfamily-specific and functionally asymmetric” (Scientific Reports, 2016).

The test system of data set [1] is Nc1ncnc2c1ncn2[C@@H]1O[C@H](COP(=O)(O)OP(=O)(O)OP(=O)(O)O)[C@@H](O)[C@H]1O. As to the kind of experiment: cells, lysate or membranes. The conditions noted are these: 30 °C, Mg-ATP, GFP-tagged wild type.
Excerpt: oligomycin-sensitive ATPase, Pi release, plasma membrane fraction; Lineweaver-Burk on Cdr1p (Cdr1p-GFP)
Data set [2] concerns the target T1, Cdr1p (Cdr1p-GFP) (Candida albicans, UniProt Q5ANA3, DEL903-903).
T1 construct: gene CDR1
As to the kind of experiment: cell-based.
Excerpt: (§1) R6G binding, from drug transport kinetics of overexpressing yeast (method not detailed) on Cdr1p (Cdr1p-GFP)

Data set [3] addresses T2, Cdr1p (Cdr1p-GFP) (Candida albicans, UniProt Q5ANA3, DEL905-905).
T2 construct: gene CDR1
As to the kind of experiment: cell-based.
Excerpt: as §1

In data set [4] the target is T3, Cdr1p (Cdr1p-GFP) (Candida albicans, UniProt Q5ANA3).
T3 construct: gene CDR1; plasmid pPSCDR1-GFP integrated at PDR5 locus of S. cerevisiae AD1-8u-; plasma membrane fractions or cells
Put plainly: R6G binding, from drug transport kinetics of overexpressing yeast (method not detailed). The format is cell-based.

Turning to “Cdr1p (Cdr1p-GFP) (Candida albicans SC5314)”, in data set [1], the Km was found to be 2100 ± 500 µM and the maximum rate (Vmax) turned out to be 0.105 µmol/min/mg.
For the compound `CCN=c1cc2oc3cc(NCC)c(C)cc3c(-c3ccccc3C(=O)OCC)c-2cc1C` [Rhodamine 6G], the dissociation constant Kd was determined as 11.9 ± 1.9 µM at Cdr1p (Cdr1p-GFP) [2], 25 ± 2 µM on Cdr1p (Cdr1p-GFP) [3] and 9 ± 1.8 µM on Cdr1p (Cdr1p-GFP) [4].
